# Results from US6420570B1, “Psoralen compounds” (priority 1993, dated 2002).
# Counter-ions that a name gives are not always drawn. Like-named read-outs stand apart in the source and are kept apart here.
# Assays:
# TA98 = experiment: Ames assay, dark mutagenicity, strain TA98
# Method: (§1) In this example the compounds of the present invention are tested for their dark mutagenicity using an Ames assay. The procedures used for the Salmonella mutagenicity test as described in detail by Maron and Ames were followed exactly. Maron, D. M. and B. N. Ames, Mutation Research 113:173 (1983). A brief description for each procedure is given here. The tester strains TA97a, TA98, TA100, TA102, TA1537 and TA1538 were obtained from Dr. Ames. TA97a, TA98, TA1537 and TA1538 are frameshift tester strains. TA100 and TA102 are base-substitution tester strains. Upon receipt each strain was cultured under a variety of conditions to confirm the genotypes specific to the strains.
# (§2) The first tests done with the strains were to determine the range of spontaneous reversion for each of the strains. With each mutagenicity experiment the spontaneous reversion of the tester strains to histidine independence was measured and expressed as the number of spontaneous revertants per plate. This served as the background controls.
# (§3) For all experiments, the pre-incubation procedure was used. In this procedure one vial of each tester strain was thawed and 20 μL of this culture was added to 6 mL of Oxoid Nutrient Broth #2. This solution was allowed to shake for 10 hours at 37° C. In the pre-incubation procedure, 0.1 mL of this overnight culture was added to each of the required number of sterile test tubes. To half of the tubes 0.5 mL of a 10% S-9 solution containing Aroclor 1254 induced rat liver extract (Molecular Toxicology Inc., Annapolis, MD), and MgCl2, KCl, glucose-6-phosphate, NADP, and sodium phosphate buffer (Sigma, St. Louis. Mo.) were added. To the other half of the tubes 0.5 mL of 0.2M sodium phospate buffer, pH 7.4, was used in place of the S-9 mixture (the -S9 samples) Finally 0.1 mL of the test solution containing either 0.0.1, 0.5, 1, 5, 10, 50, 100, 250, or 500 μg/mL of the test compound was added. The 0.7 mL mixture pre-incubated while shaking for 20 minutes at 37° C. After shaking, 2 mL of molten top agar supplemented with histidine and biotin were added to the 0.7 mL mixture and immediately poured onto a minimal glucose agar plate (volume of base agar was 20 ml.). The top agar was allowed 30 minutes to solidify and then the plates were inverted and incubated for 44 hours at 37° C. After incubation the number of revertant colonies on each plate were counted. […] (“n” represents the number of replicates performed for each data point.)
# (§4) Maron and Ames (1983) describe the conflicting views with regard to the statistical treatment of data generated from the test.
# R17 = R17 inactivation at constant concentration, varying doses of UV light; format: cell-based, bacteriophage R17; settings: UV doses 1.0 to 3.0 J/cm^2, FIGS. 11-17
# Method: Compounds of the present invention were also tested at a constant concentration for varying doses of UV light. Three sets of 1.5 mL tubes were prepared containing 0.6 mL aliquots of R17 in DMEM (prepared as described above). The compound tested was added at the desired concentration and the samples were vortexed. The samples were then irradiated at intervals of 1.0 J/cm^2, until 3.0 J/cm^2 was reached. Between each 1.0 J/cm^2 interval, 100 μL was removed from each sample and placed in the first corresponding dilution tube, then five sequential dilutions were performed for each compound tested, at all 3 irradiation doses, as described above in this example.
# Then 50 μL of Hfr 3000 bacteria was added to each tube, 3 mL of top agar was added and the tube contents were vortexed. The contents of each tube was poured into its own LB plate and the plates were incubated overnight at 37° C. Plaques were counted by visual inspection the following morning.
# [1] = test system: Salmonella tester strains; experiment: Ames assay, dark mutagenicity, overall over tester strains; settings: base-substitution tester strains TA100 and TA102
# Method: as §1, §2, §3, §4
# TA1537 = experiment: Ames assay, dark mutagenicity, strain TA1537
# Method: as §1, §2, §3, §4
# TA100 = test system: TA100
# Method: as §1, §2, §3, §4
# TA1538 = experiment: Ames assay, dark mutagenicity, strain TA1538
# Method: as §1, §2, §3, §4
# cell-free virus (HIV) = format: cell-based; settings: 1 minute irradiation
# Method: Pathogen inactivation efficiency of several compounds of the present invention was evaluated by examining the ability of the compounds to inactivate cell-free virus (HIV). Inactivation of cell-free HIV was performed as follows.
# As in the R17 assay, small aliquots of the compounds listed in TABLES 8 and 9, below, at the concentrations listed in the table, were added to stock HIV-1 to a total of 0.5 mL. The stock HIV (10^5-10^7 plaque forming units/mL) was in DMEM/15% FBS. […] Controls included HIV-1 stock only, HIV-1 plus UVA only, and HIV-1 plus the highest concentration of each psoralen tested, with no UVA. Post irradiation, all samples were stores frozen at −70° C. until assayed for infectivity by a microtiter plaque assay. Aliquots for measurement of residual HIV infectivity in the samples treated with a compound of the present invention were withdrawn and cultured.
# Residual HIV infectivity was assayed using an MT-2 infectivity assay. […] The assay medium was 85% DMEM (with a high glucose concentration) containing 100 μg of streptomycin, 100 U of penicillin, 50 μg of gentamicin, and 1 μg of amphotericin B per mL, 15% FBS and 2 μg of Polybrene (Sigma Chemical Co., St. Louis, Mo.) per mL. Test and control samples from the inactivation procedure were diluted in 50% assay medium and 50% normal human pooled plasma. The samples were serially diluted directly in 96-well plates (Corning Glass Works, corning, N.Y.). The plates were mixed on an oscillatory shaker for 30 seconds and incubated at 37° C. in a 5% CO2 atmosphere for 1 to 18 hours. […] After an additional 1 hour of incubation at 37° C. in 5% CO2, 0.075 mL of assay medium containing 1.6% SeaPlaque agarose (FMC Bioproducts, Rockland, me.) and prewarmed to 38.5° C. was added to each well. The plates were kept at 37° C. for a few minutes until several plates had accumulated and then centrifuged in plate carriers at 600×g for 20 minutes in a centrifuge precooled to 10° C. In the centrifuge, cell monolayers formed prior to gelling of the agarose layer. The plates were incubated for 5 days at 37° C. in 5% CO2 and stained by the addition of 0.05 mL of 50 μg/mL propidium iodide (Sigma Chemical Co.) in phosphate-buffered saline (pH 7.4) to each well. After 24 to 48 hours, the red fluorescence-stained microplaques were visualized by placing the plates on an 8,000 μW/cm^2 304 nm UV light box (Fotodyne, Inc., New Berlin, Wis.). The plaques were counted at a magnification of ×20 to ×25 through a stereomicroscope. “n” represents the number of runs for which the data point is an average.
# [2] = Table 8, HIV starting titer approximately 5 logs
# [3] = Table 9, HIV starting titer approximately 5.4 logs
smiles,measurement,setting,value
"Cc1oc2c(C)c3oc(=O)cc(C)c3cc2c1CNCCCCN [Compound 6, 4′-(6-Aminohexyl-2-aza)-4,5′,8-trimethylpsoralen Dihydrochloride]",revertant colonies per plate,"TA98; TA98 +S9, 10 μg/plate",−5
same,revertant colonies per plate,"TA98; TA98 +S9, 250 μg/plate",40
same,revertant colonies per plate,"TA98; TA98 +S9, 500 μg/plate",52
same,revertant colonies per plate,"TA98; TA98 −S9, 10 μg/plate",12
same,revertant colonies per plate,"TA98; TA98 −S9, 50 μg/plate",12
same,revertant colonies per plate,"TA98; TA98 −S9, 100 μg/plate",22
same,revertant colonies per plate,"TA98; TA98 −S9, 250 μg/plate",12
same,revertant colonies per plate,"TA98; TA98 −S9, 500 μg/plate",9
same,R17 inactivation compared with AMT,R17,more efficient at inactivating R17 than was AMT
same,base-substitution mutagenicity,[1],no base substitution mutagenicity
same,revertant colonies per plate,"TA1537; TA1537 +S9, 10 μg/plate",−1
same,revertant colonies per plate,"TA1537; TA1537 +S9, 50 μg/plate",17
same,revertant colonies per plate,"TA1537; TA1537 +S9, 250 μg/plate",99
same,revertant colonies per plate,"TA1537; TA1537 +S9, 500 μg/plate",369
same,dose showing a response,"TA1537; TA1537, in the presence of S9",50 μg/plate
same,revertant colonies per plate,"TA1537; TA1537 −S9, 10 μg/plate",141
same,revertant colonies per plate,"TA1537; TA1537 −S9, 50 μg/plate",2010
same,revertant colonies per plate,"TA1537; TA1537 −S9, 100 μg/plate",795
same,revertant colonies per plate,"TA1537; TA1537 −S9, 250 μg/plate",228
same,revertant colonies per plate,"TA1537; TA1537 −S9, 500 μg/plate",43
same,revertant colonies per plate,"TA100; TA100 +S9, 5 μg/plate",12
same,revertant colonies per plate,"TA100; TA100 +S9, 10 μg/plate",−5
same,revertant colonies per plate,"TA100; TA100 −S9, 5 μg/plate",−32
same,revertant colonies per plate,"TA100; TA100 −S9, 10 μg/plate",3
same,revertant colonies per plate,"TA1538; TA1538 +S9, 5 μg/plate",0
same,revertant colonies per plate,"TA1538; TA1538 +S9, 10 μg/plate",8
same,revertant colonies per plate,"TA1538; TA1538 −S9, 5 μg/plate",−5
same,HIV Log Kill 16 μM,cell-free virus (HIV); [2],2.0 log
same,HIV Log Kill 32 μM,cell-free virus (HIV); [2],3.1 log
same,HIV Log Kill 64 μM,cell-free virus (HIV); [2],>3.8 log
same,HIV Log Kill 16 μM,cell-free virus (HIV); [3],2.1 log
same,HIV Log Kill 32 μM,cell-free virus (HIV); [3],3.2 log
same,HIV Log Kill 64 μM,cell-free virus (HIV); [3],>2.8 log
